{
  "source": "paper PMC6269910",
  "about": "(Molecules, 2013)",
  "key": {"[1]": {"tested_on": "lipid peroxidation in stomach", "assay": "Lipid peroxidation in stomach (TBARS)", "assay_type": "in vivo, mice", "details": "100 mg/kg, 8 h after analgesic test"}, "[2]": {"tested_on": "carrageenan-induced hind paw edema", "assay": "Carrageenan-induced hind paw edema model", "assay_type": "in vivo, mice", "method": "Locally bred balb/c mice of both sexes (30-35 g) were purchased from the animal breeding laboratories of Inonu University ([…], Turkey). The animals were fed a standard pellet diet and water ad libitum in a temperature-controlled room. On the day before the treatments, food was withdrawn, but the animals were allowed free access of water. The allocation of animals to different groups was randomized, and the experiments were carried out under blind conditions. Mice used in the present study were cared for in accordance with the directory of the Inonu University Animal Care Unit, which applies the guidelines of the National Institutes of Health on laboratory animal welfare. Procedures involving animals and their care were conducted in conformity with international laws and policies and animal studies accepted by Inonu University Ethical Council (2011/A17). Test samples, suspended in a mixture of distilled water and 0.5% sodium carboxymethyl cellulose (CMC), were given orally to the animals. The control group animals received the same experimental handling as those of the test groups, except that the drug treatment was replaced with appropriate volumes of the dosing vehicle. […] For the preliminary activity screening, each test group was composed of four mice. […] Because of the daily changing circumstance, we used another control group for each experiment. For the determination of the effects on carrageenan-induced paw oedema, the modified method of Kasahara et al. was employed. One hour after the oral administration of either test sample or dosing vehicle, each mouse was injected with a freshly prepared (0.5 mg/25 μL) suspension of carrageenan (Sigma, St. Louis, MO, USA) in physiological saline (154 mM NaCl). The subplantar tissue of the right hind paw was the injection site for all mice. The contralateral paw (left hind paw) was injected with 25 μL saline solution as the internal control. […] The difference in footpad thickness between the right and left foot indicated the degree of inflammation for each mouse. The change in paw volume, either increase or decrease, was calculated and compared with the control group (dosing vehicle) and analyzed using statistical methods."}, "[3]": {"target": "T1, HCV NS5B RNA dependent RNA polymerase (Hepatitis C virus genotype 1b, UniProt P26663)", "T1 construct": "HCV NS5B RNA dependent RNA polymerase activity", "T1 sequence (P26663 2420-3010)": "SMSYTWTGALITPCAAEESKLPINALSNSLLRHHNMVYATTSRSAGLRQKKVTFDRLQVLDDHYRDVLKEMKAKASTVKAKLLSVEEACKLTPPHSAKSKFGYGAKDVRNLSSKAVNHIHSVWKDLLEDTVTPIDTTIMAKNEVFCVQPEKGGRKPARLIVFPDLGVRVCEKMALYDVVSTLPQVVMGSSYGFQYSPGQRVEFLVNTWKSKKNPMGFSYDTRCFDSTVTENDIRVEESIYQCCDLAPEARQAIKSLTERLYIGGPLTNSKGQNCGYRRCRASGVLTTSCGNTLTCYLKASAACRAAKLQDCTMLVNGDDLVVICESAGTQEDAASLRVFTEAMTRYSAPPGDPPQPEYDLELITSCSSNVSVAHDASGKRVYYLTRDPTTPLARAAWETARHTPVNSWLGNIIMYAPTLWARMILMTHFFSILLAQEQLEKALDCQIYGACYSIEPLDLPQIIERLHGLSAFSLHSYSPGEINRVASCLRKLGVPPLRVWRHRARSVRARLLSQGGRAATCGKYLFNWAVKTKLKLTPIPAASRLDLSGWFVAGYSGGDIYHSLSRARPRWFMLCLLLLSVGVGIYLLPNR", "assay": "NS5B inhibition assay (primer dependent elongation, poly rA-U12)", "assay_type": "biochemical", "details": "read-out: Anti-NS5B Activity (% Inh., 100 µM)", "method": "The compounds 1a–e and 2a–e were reconstituted in DMSO as 50 mM stocks, and serially diluted in DMSO to obtain working stocks. Wedelolactone, a known inhibitor of HCV NS5B activity, was employed as a reference compound. Preliminary screening was carried out at 100 μM to identify a wider range of compounds.\nAll synthesized compounds were evaluated for their effect on HCV NS5B RNA dependent RNA polymerase activity in primer dependent elongation assays as previously described. Activity of NS5B in the absence of the inhibitor but containing an equivalent amount of DMSO (control reaction) was set at 100% and that in the presence of the inhibitor was quantified relative to this control."}, "stomach": {"tested_on": "stomach", "assay": "Gastric-ulcerogenic effect (ulcer score)", "assay_type": "in vivo, mice", "details": "200 mg/kg p.o.; animals with lesions/animals"}, "[4]": {"tested_on": "acetic acid-induced abdominal constriction", "assay": "Acetic acid-induced writhing (Koster) test", "assay_type": "in vivo, mice", "method": "Test samples, suspended in a mixture of distilled water and 0.5% sodium carboxymethyl cellulose (CMC), were given orally to the animals. The control group animals received the same experimental handling as those of the test groups, except that the drug treatment was replaced with appropriate volumes of the dosing vehicle. […] One hour after oral administration of test sample, each mouse was injected intraperitoneally with 3% (w/v) acetic acid solution (0.1 mL/10 g, bw). Starting 5 min after the acetic acid injection, the number of muscular contractions on mice were counted for a period of 10 min. A significant reduction in the number of writhings by any treatment as compared to the number of writhings in control animals was considered a positive analgesic response. The analgesic activity was expressed as a percentage change from writhing controls. ASA was used as a reference compound and administered at 200 mg/kg."}},
  "data": [
    {"compound": "Cc1ccc(-c2cc(C(F)(F)F)nn2-c2ccc(S(=O)(=O)/N=C3\\SCC(=O)N3Cc3ccccc3)cc2)cc1", "note": "[Compound 2c, N-(3-Benzyl-4-oxo-1,3-thiazolidin-2-yldene)-4-[5-(4-methylphenyl)-3-(trifluoromethyl)-1H-pyrazol-1-yl]benzenesulfonamide]", "values": [
      {"measurement": "melting point", "value": 250, "unit": "°C"},
      {"measurement": "Lipid peroxidation", "setting": "[1]", "value": "330.4 ± 9.7", "unit": "nmol TBARS/g wet weight"},
      {"measurement": "Swelling in thickness ± SEM", "setting": "[2]; 50 mg/kg per os, 90 min", "value": "65.0 ± 6.1 × 10^−2 mm"},
      {"measurement": "percent inhibitory activity", "setting": "[2]; 50 mg/kg per os, 90 min", "value": 9.7, "unit": "%"},
      {"measurement": "Swelling in thickness ± SEM", "setting": "[2]; 50 mg/kg per os, 180 min", "value": "74.0 ± 8.8 × 10^−2 mm"},
      {"measurement": "percent inhibitory activity", "setting": "[2]; 50 mg/kg per os, 180 min", "value": 19.5, "unit": "%"},
      {"measurement": "Swelling in thickness ± SEM", "setting": "[2]; 50 mg/kg per os, 270 min", "value": "95.0 ± 10.0 × 10^−2 mm"},
      {"measurement": "percent inhibitory activity", "setting": "[2]; 50 mg/kg per os, 270 min", "value": 21.4, "unit": "%"},
      {"measurement": "Swelling in thickness ± SEM", "setting": "[2]; 50 mg/kg per os, 360 min", "value": "110.0 ± 7.1 × 10^−2 mm"},
      {"measurement": "percent inhibitory activity", "setting": "[2]; 50 mg/kg per os, 360 min", "value": 14.7, "unit": "%"},
      {"measurement": "Swelling in thickness ± SEM", "setting": "[2]; 100 mg/kg per os, 90 min", "value": "83.4 ± 8.7 × 10^−2 mm"},
      {"measurement": "Swelling in thickness ± SEM", "setting": "[2]; 100 mg/kg per os, 180 min", "value": "90.6 ± 11.7 × 10^−2 mm"},
      {"measurement": "Swelling in thickness ± SEM", "setting": "[2]; 100 mg/kg per os, 270 min", "value": "91.7 ± 16.7 × 10^−2 mm"},
      {"measurement": "percent inhibitory activity", "setting": "[2]; 100 mg/kg per os, 270 min", "value": 24.2, "unit": "%"},
      {"measurement": "Swelling in thickness ± SEM", "setting": "[2]; 100 mg/kg per os, 360 min", "value": "118.2 ± 7.1 × 10^−2 mm"},
      {"measurement": "percent inhibitory activity", "setting": "[2]; 100 mg/kg per os, 360 min", "value": 8.3, "unit": "%"},
      {"measurement": "Swelling in thickness ± SEM", "setting": "[2]; 200 mg/kg per os, 90 min", "value": "69.5 ± 8.3 × 10^−2 mm"},
      {"measurement": "percent inhibitory activity", "setting": "[2]; 200 mg/kg per os, 90 min", "value": 3.4, "unit": "%"},
      {"measurement": "Swelling in thickness ± SEM", "setting": "[2]; 200 mg/kg per os, 180 min", "value": "75.6 ± 8.3 × 10^−2 mm"},
      {"measurement": "percent inhibitory activity", "setting": "[2]; 200 mg/kg per os, 180 min", "value": 17.8, "unit": "%"},
      {"measurement": "Swelling in thickness ± SEM", "setting": "[2]; 200 mg/kg per os, 270 min", "value": "133.2 ± 14.3 × 10^−2 mm"},
      {"measurement": "Swelling in thickness ± SEM", "setting": "[2]; 200 mg/kg per os, 360 min", "value": "120.1 ± 5.3 × 10^−2 mm"},
      {"measurement": "percent inhibitory activity", "setting": "[2]; 200 mg/kg per os, 360 min", "value": 6.9, "unit": "%"},
      {"measurement": "inhibition at 100 µM", "setting": "[3]", "value": 19.4, "unit": "%"},
      {"measurement": "Ulcer score", "setting": "stomach", "value": "0/5"},
      {"measurement": "analgesic activity (in words)", "setting": "[4]; 100 mg/kg", "value": "not statistically significant"},
      {"measurement": "Writhing test (% inh.)", "setting": "[4]; 100 mg/kg oral", "value": 32.2, "unit": "%"},
      {"measurement": "Writhing test (Mean ± SEM)", "setting": "[4]; 100 mg/kg oral, writhings counted 10 min from 5 min after acetic acid", "value": "11.8 ± 1.4"}
    ]}
  ]
}
